In the supplement of paper PMC11208160:

Test: recombinant UMI read abundance after kanamycin selection (control-corrected) (log10(CPM+1)); higher = more efficient recombination; extreme values may be limits of the assay; sequences stand for … in AGTGCAGAGAAAATCGGCCAGTTTTCTCTGCCTGCAGTCCGCATGCCGTGGGACCCCTTGGGTTCTAACCTGTTGCCTAGATTTATGCAGCGGACTGCCTTTCTCCCAAAGTGATAAACCGG…AGGTTGGTTTCACT; site = the 11-nt donor
Summary of the method: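 The measure is log10(CPM+1) for recombinant UMIs. These were PCR-amplified across the donor–target junction and sequenced after Escherichia coli carrying a donor and donor-binding-loop pair library and a target plasmid with T7-inducible IS621 bridge recombinase was plated on IPTG (0.07 mM) plus kanamycin or unselected. CPM were averaged over two replicates and scaled by control-derived factors.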
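Further: IS621 bridge recombinase in Escherichia coli cells against a fixed T5 target plasmid.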

Sequence	recombinant UMI read abundance (log10)
CTAGTTGCATGGACCGGTTTTCCCGGTAATCCGTATTTGAC (site CTAGTTGCTGT)	2.24
CTATAGCCATGGACCGGTTTTCCCGGTAATCCGTATTTGCG (site CTATAGCCTCG)	1.01
CTATATCCATGGACCGGTTTTCCCGGTAATCCGTATTTGTA (site CTATATCCTTA)	1.51
CTATCATCATGGACCGGTTTTCCCGGTAATCCGTATTTGAT (site CTATCATCTAT)	0.00941
CTATGATCATGGACCGGTTTTCCCGGTAATCCGTATTTGCA (site CTATGATCTTG)	2.62
CTATGCTCATGGACCGGTTTTCCCGGTAATCCGTATTTGAA (site CAATGCTCTTT)	0.941
CTATGCTCATGGACCGGTTTTCCCGGTAATCCGTATTTGAA (site CCATGCTCTTT)	0.497
CTATGCTCATGGACCGGTTTTCCCGGTAATCCGTATTTGAA (site CGATGCTCTTT)	0.383
CTATGCTCATGGACCGGTTTTCCCGGTAATCCGTATTTGAA (site CTATGCTCTTT)	2.25
CTATTACCATGGACCGGTTTTCCCGGTAATCCGTATTTGAG (site CTATTACCTCT)	0.00551
CTATTATCATGGACCGGTTTTCCCGGTAATCCGTATTTGAC (site CTAATATCTGT)	0
CTATTATCATGGACCGGTTTTCCCGGTAATCCGTATTTGAC (site CTACTATCTGT)	1.96
CTATTATCATGGACCGGTTTTCCCGGTAATCCGTATTTGAC (site CTAGTATCTGT)	1.61
CTATTATCATGGACCGGTTTTCCCGGTAATCCGTATTTGAC (site CTATTATCTGT)	2.82
CTATTATCATGGACCGGTTTTCCCGGTAATCCGTATTTGAT (site CTAGTATCTGT)	0
CTATTATCATGGACCGGTTTTCCCGGTAATCCGTATTTGAT (site CTATTATCTAT)	1.18
CTATTTCCATGGACCGGTTTTCCCGGTAATCCGTATTTGGA (site CTATTTCCTTC)	0
CTCAATTCATGGACCGGTTTTCCCGGTAATCCGTATTTGCT (site CTCAATTCTAG)	1.7
CTCACAACATGGACCGGTTTTCCCGGTAATCCGTATTTGTG (site CTCACAACTCA)	0
CTCACACCATGGACCGGTTTTCCCGGTAATCCGTATTTGTC (site CTCACACCTGA)	0
CTCACGCCATGGACCGGTTTTCCCGGTAATCCGTATTTGTG (site CTCACGCCTCA)	0
CTCACTACATGGACCGGTTTTCCCGGTAATCCGTATTTGAG (site CTCACTACTCT)	0.232
CTCACTACATGGACCGGTTTTCCCGGTAATCCGTATTTGAG (site CTCCCTACTCT)	0

Sequence	recombinant UMI read abundance (log10)
CTCACTACATGGACCGGTTTTCCCGGTAATCCGTATTTGAG (site CTCGCTACTCT)	0
CTCACTACATGGACCGGTTTTCCCGGTAATCCGTATTTGAG (site CTCTCTACTCT)	0
CTCACTCCATGGACCGGTTTTCCCGGTAATCCGTATTTGTA (site CTCACTCCTTA)	0.981
CTCATACCATGGACCGGTTTTCCCGGTAATCCGTATTTGGT (site CTCATACCTAC)	0
CTCATATCATGGACCGGTTTTCCCGGTAATCCGTATTTGAC (site CTAGTATCTGT)	0
CTCATATCATGGACCGGTTTTCCCGGTAATCCGTATTTGAC (site CTCATATCTGT)	1.29
CTCATTTCATGGACCGGTTTTCCCGGTAATCCGTATTTGTG (site CTCATTTCTCA)	0
CTCCAAGCATGGACCGGTTTTCCCGGTAATCCGTATTTGAG (site ATCCAAGCTCT)	0.0148
CTCCAAGCATGGACCGGTTTTCCCGGTAATCCGTATTTGAG (site CTCCAAGCTCT)	0.456
CTCCAAGCATGGACCGGTTTTCCCGGTAATCCGTATTTGAG (site GTCCAAGCTCT)	0.0157
CTCCAAGCATGGACCGGTTTTCCCGGTAATCCGTATTTGAG (site TTCCAAGCTCT)	0.018
CTCCACACATGGACCGGTTTTCCCGGTAATCCGTATTTGAC (site CTCCACACTGT)	2.47
CTCCACACATGGACCGGTTTTCCCGGTAATCCGTATTTGTA (site CACCACACTTA)	1.47
CTCCACACATGGACCGGTTTTCCCGGTAATCCGTATTTGTA (site CCCCACACTTA)	0.728
CTCCACACATGGACCGGTTTTCCCGGTAATCCGTATTTGTA (site CGCCACACTTA)	0.289
CTCCACACATGGACCGGTTTTCCCGGTAATCCGTATTTGTA (site CTCCACACTTA)	1.33
CTCCATACATGGACCGGTTTTCCCGGTAATCCGTATTTGAG (site CTCCATACTCT)	1.27
CTCCATACATGGACCGGTTTTCCCGGTAATCCGTATTTGAG (site CTCCCTACTCT)	0.0258
CTCCATACATGGACCGGTTTTCCCGGTAATCCGTATTTGAG (site CTCCGTACTCT)	0.0224
CTCCATACATGGACCGGTTTTCCCGGTAATCCGTATTTGAG (site CTCCTTACTCT)	0.0162
CTCCCTACATGGACCGGTTTTCCCGGTAATCCGTATTTGAA (site CTCCCTACTAT)	0.112
CTCCCTACATGGACCGGTTTTCCCGGTAATCCGTATTTGAA (site CTCCCTACTCT)	0.0285
CTCCCTACATGGACCGGTTTTCCCGGTAATCCGTATTTGAA (site CTCCCTACTGT)	0

Sequence	recombinant UMI read abundance (log10)
CTCCCTACATGGACCGGTTTTCCCGGTAATCCGTATTTGAA (site CTCCCTACTTT)	0.46
CTCCCTACATGGACCGGTTTTCCCGGTAATCCGTATTTGAC (site CTCCCTACTAT)	0.576
CTCCCTACATGGACCGGTTTTCCCGGTAATCCGTATTTGAC (site CTCCCTACTCT)	0.293
CTCCCTACATGGACCGGTTTTCCCGGTAATCCGTATTTGAC (site CTCCCTACTGT)	1.88
CTCCCTACATGGACCGGTTTTCCCGGTAATCCGTATTTGAC (site CTCCCTACTTT)	0.415
CTCCCTACATGGACCGGTTTTCCCGGTAATCCGTATTTGAG (site ATCCCTACTCT)	0.0141
CTCCCTACATGGACCGGTTTTCCCGGTAATCCGTATTTGAG (site CACCCTACTCT)	0.112
CTCCCTACATGGACCGGTTTTCCCGGTAATCCGTATTTGAG (site CCCCCTACTCT)	0.0077
CTCCCTACATGGACCGGTTTTCCCGGTAATCCGTATTTGAG (site CGCCCTACTCT)	0.0122
CTCCCTACATGGACCGGTTTTCCCGGTAATCCGTATTTGAG (site CTACCTACTCT)	0.0126
CTCCCTACATGGACCGGTTTTCCCGGTAATCCGTATTTGAG (site CTCACTACTCT)	0.0117
CTCCCTACATGGACCGGTTTTCCCGGTAATCCGTATTTGAG (site CTCCATACTCT)	0.00249
CTCCCTACATGGACCGGTTTTCCCGGTAATCCGTATTTGAG (site CTCCCAACTCT)	0.00701
CTCCCTACATGGACCGGTTTTCCCGGTAATCCGTATTTGAG (site CTCCCCACTCT)	0.0165
CTCCCTACATGGACCGGTTTTCCCGGTAATCCGTATTTGAG (site CTCCCGACTCT)	0.0234
CTCCCTACATGGACCGGTTTTCCCGGTAATCCGTATTTGAG (site CTCCCTACTAT)	0.455
CTCCCTACATGGACCGGTTTTCCCGGTAATCCGTATTTGAG (site CTCCCTACTCA)	0.0198
CTCCCTACATGGACCGGTTTTCCCGGTAATCCGTATTTGAG (site CTCCCTACTCC)	0.0101
CTCCCTACATGGACCGGTTTTCCCGGTAATCCGTATTTGAG (site CTCCCTACTCG)	0.00797
CTCCCTACATGGACCGGTTTTCCCGGTAATCCGTATTTGAG (site CTCCCTACTCT)	0.248
CTCCCTACATGGACCGGTTTTCCCGGTAATCCGTATTTGAG (site CTCCCTACTGT)	0
CTCCCTACATGGACCGGTTTTCCCGGTAATCCGTATTTGAG (site CTCCCTACTTT)	0.0136
